# Measurements reported in patent US10085451B2, “Synergistic herbicidal composition containing penoxsulam and bentazon” (Dow AgroSciences LLC, priority 2010, dated 2018).
# Key:
# [1] = test system: Sagittaria trifolia (SAGTR); experiment: Postemergence herbicidal activity of mixtures in the field, broadleaf weed control; assay type: in vivo; conditions: 6 to 45 days after application
# Procedure: (§1) Field trials were conducted in rice using standard herbicide small plot research methodology. Plots varied from 3×3 meter (m) to 3×10 m (width×length) with 4 replicates per treatment. The rice crop was grown using normal cultural practices for fertilization, seeding, watering, flooding and maintenance to ensure good growth of the crop and the weeds. All treatments in the field trials were applied using a CO2 backpack sprayer calibrated to apply 187 L/ha spray volume. Commercially available products of penoxsulam and bentazon were mixed in water at appropriate formulated product rates to achieve the desired rates based on a unit area of application (hectare) to achieve the desired rates as shown. Treatments were rated at 6 to 45 d after application as compared to the untreated control plants. Visual weed control was scored on a scale of 0 to 100 percent where 0 corresponds to no injury and 100 corresponds to complete kill. Colby's equation was used to determine the herbicidal effects expected from the mixtures (Colby, S. R. Calculation of the synergistic and antagonistic response of herbicide combinations. Weeds 1967, 15, 20-22.). The following equation was used to calculate the expected activity of mixtures containing two active ingredients, A and B: Expected=A+B−(A×B/100) A=observed efficacy of active ingredient A at the same concentration as used in the mixture. B=observed efficacy of active ingredient B at the same concentration as used in the mixture.
# Cyperus iria; CYPIR = experiment: Postemergence herbicidal activity of mixtures in the greenhouse, sedge weed control; assay type: in vivo; conditions: 21 days after application
# Procedure: Seeds of the desired test plant species were planted in 80% mineral soil/20% grit planting mixture, which typically has a pH of 7.2 and an organic matter content of approximately 3 percent, in plastic pots with a surface area of 128 square centimeters (cm^2). The growing medium was steam sterilized. The plants were grown for 7-19 days (d) in a greenhouse with an approximate 14-hour (h) photoperiod which was maintained at about 29° C. during the day and 26° C. during the night. Nutrients and water were added on a regular basis and supplemental lighting was provided with overhead metal halide 1000-Watt lamps as necessary. The plants were treated with postemergence foliar applications when they reached the second to fourth true leaf stage. All treatments were applied using a randomized complete block trial design, with 4 replications per treatment. Treatments consisted of the compounds as listed in Tables 1 and 3, each compound applied alone and in combination. Formulated amounts of penoxsulam and bentazon, were placed in 60 milliliter (mL) glass vials and dissolved in a volume of 60 mL of a water solution containing Agri-dex crop oil concentrate in a 1% v/v ratio. Compound requirements are based upon a 12 mL application volume at a rate of 187 liters per hectare (L/ha). Spray solutions of the mixtures were prepared by adding the stock solutions to the appropriate amount of dilution solution to form a 12 mL spray solution with active ingredients in single and two way combinations. Formulated compounds were applied to the plant material with an overhead Mandel track sprayer equipped with […] nozzles calibrated to deliver 187 L/ha at a spray height of 18 inches (43 centimeters (cm)) above average plant canopy. The treated plants and control plants were placed in a greenhouse as described above and watered by sub-irrigation to prevent wash-off of the test compounds. […] Visual weed control was scored on a scale of 0 to 100 percent where 0 corresponds to no injury and 100 corresponds to complete kill. […]
# [2] = test system: Echinochloa crus-galli (ECHCG); experiment: Postemergence herbicidal activity of mixtures in the field, grass weed control; assay type: in vivo; conditions: 6 to 45 days after application
# Procedure: as §1, with “B=observed efficacy of active ingredient B at the same concentration as used in the mixture.” left out
# Rice (ORYSA) = experiment: Safening of injury in rice in the greenhouse; assay type: in vivo, Orysa sativa; conditions: 21 days after application
# Procedure: Seeds of the desired test plant species were planted in 80% mineral soil/20% grit planting mixture, which typically has a pH of 7.2 and an organic matter content of approximately 3 percent, in plastic pots with a surface area of 128 square centimeters (cm^2). The growing medium was steam sterilized. The plants were grown for 7-19 days (d) in a greenhouse with an approximate 14-hour (h) photoperiod which was maintained at about 29° C. during the day and 26° C. during the night. Nutrients and water were added on a regular basis and supplemental lighting was provided with overhead metal halide 1000-Watt lamps as necessary. The plants were treated with postemergence foliar applications when they reached the second to fourth true leaf stage. All treatments were applied using a randomized complete block trial design, with 4 replications per treatment. Treatments consisted of the compounds as listed in Tables 1 and 3, each compound applied alone and in combination. Formulated amounts of penoxsulam and bentazon, were placed in 60 milliliter (mL) glass vials and dissolved in a volume of 60 mL of a water solution containing Agri-dex crop oil concentrate in a 1% v/v ratio. […] Visual weed control was scored on a scale of 0 to 100 percent where 0 corresponds to no injury and 100 corresponds to complete kill. […]
# [3] = bentazon-sodium 1000 g/ha alone
SMILES,% Control SAGTR Ob ([1]; bentazon-sodium 1100 g/ha alone) [%],% Control CYPIR Ob (Cyperus iria; CYPIR; bentazon-sodium 500 g/ha alone) [%],% Control CYPIR Ob (Cyperus iria; CYPIR; [3]) [%],% Control ECHCG Ob ([2]; bentazon-sodium 2000 g/ha alone) [%],% Control ORYSA Ob (Rice (ORYSA); bentazon-sodium 500 g/ha alone) [%],% Control ORYSA Ob (Rice (ORYSA); [3]) [%],% Control SAGTR Ob ([1]; penoxsulam 15 g/ha alone) [%],% Control SAGTR Ob ([1]; penoxsulam 23 g/ha alone) [%],% Control CYPIR Ob (Cyperus iria; CYPIR; penoxsulam 3 g/ha alone) [%],% Control ECHCG Ob ([2]; penoxsulam 38 g/ha alone) [%]
"CC(C)N1C(=O)c2ccccc2NS1(=O)=O [Bentazon-Sodium, 3-(1-methylethyl)-1H-2,1,3-benzothiadiazin-4(3H)-one 2,2-dioxide]",78,55,72,0,14,16,,,,
"COc1cnc(OC)n2nc(NS(=O)(=O)c3c(OCC(F)F)cccc3C(F)(F)F)nc12 [Penoxsulam, 2-(2,2-difluoroethoxy)-N-(5,8-dimethoxy-[1,2,4]triazolo[1,5-c]pyrimidin-2-yl)-6-(trifluoromethyl)benzenesulfonamide]",,,,,,,38,45,20,30
